Measurements as given in the NIST ThermoML archive (doi:10.1016/j.fluid.2009.11.017).
Numbers after ± are expanded uncertainties.

Details: Liquid, Ebulliometric method (Recirculating still)

SMILES	vapor or sublimation pressure (344.79 K) [kPa]	vapor or sublimation pressure (357.27 K) [kPa]	vapor or sublimation pressure (365.3 K) [kPa]	vapor or sublimation pressure (372.09 K) [kPa]	vapor or sublimation pressure (377.89 K) [kPa]	vapor or sublimation pressure (382.18 K) [kPa]	vapor or sublimation pressure (386.25 K) [kPa]	vapor or sublimation pressure (390.38 K) [kPa]	vapor or sublimation pressure (394.05 K) [kPa]	vapor or sublimation pressure (365.49 K) [kPa]	vapor or sublimation pressure (376.75 K) [kPa]	vapor or sublimation pressure (385.55 K) [kPa]	vapor or sublimation pressure (392.87 K) [kPa]	vapor or sublimation pressure (398.66 K) [kPa]	vapor or sublimation pressure (404.09 K) [kPa]	vapor or sublimation pressure (408.83 K) [kPa]	vapor or sublimation pressure (413.06 K) [kPa]	vapor or sublimation pressure (417.28 K) [kPa]
C1CCSC1 [tetrahydrothiophene]	20.39 ± 0.35	32.09 ± 0.36	42.29 ± 0.37	52.61 ± 0.38	63.09 ± 0.39	71.89 ± 0.41	81.18 ± 0.42	91.67 ± 0.44	102.02 ± 0.45	–	–	–	–	–	–	–	–	–
Cc1ccccc1C [1,2-dimethylbenzene]	–	–	–	–	–	–	–	–	–	20.4 ± 0.35	30.14 ± 0.35	40.2 ± 0.36	50.43 ± 0.37	60.03 ± 0.38	70.27 ± 0.4	80.41 ± 0.41	90.54 ± 0.43	101.85 ± 0.44
